Results taken from patent publication US20150087627A1, “COMBINATION OF KINASE INHIBITORS AND USES THEREOF” (Intellikine LLC, priority 2011, published 2015).

What was measured:
Type in all cases: biochemical
[1] = target: T1, PI3K β (p110β/p85α) (Homo sapiens, UniProt P42338); experiment: PI 3-Kinase (human) HTRF assay, PI3K β; conditions: read-out: PI3K β IC50
T1 construct: purchased Upstate / Millipore Corporation
Description: (§1) Briefly, the assay is a time resolved FRET assay that indirectly measures PIP3 product formed by the activity of a PI3-K. The kinase reaction is performed in a microtiter plate (e.g., a 384 well microtiter plate). The total reaction volume is approximately 20 ul per well. In the first step, each well receives 2 ul of test compound in 20% dimethylsulphoxide resulting in a 2% DMSO final concentration. […] The plate is sealed and incubated for 15 minutes at room temperature. […] The plate is sealed and incubated for 1 hour at room temperature. The reaction is stopped by adding 5 ul of Stop Solution per well and then 5 ul of Detection Mix is added per well. The plate is sealed, incubated for 1 hour at room temperature, and then read on an appropriate plate reader. Data is analyzed and IC50s are generated using GraphPad Prism 5.

[2] = target: T2, PI3K α (p110α/p85α) (Homo sapiens, UniProt P42336); experiment: PI 3-Kinase (human) HTRF assay, PI3K α; conditions: read-out: PI3K α IC50
T2 construct: purchased Upstate / Millipore Corporation
Description: as §1

[3] = target: T3, PI3K γ (p110γ) (Homo sapiens, UniProt P48736); experiment: PI 3-Kinase (human) HTRF assay, PI3K γ; conditions: read-out: PI3K γ IC50
T3 construct: purchased Upstate / Millipore Corporation
Description: as §1

[4] = target: T4, PI3K δ (Homo sapiens, UniProt O00329); experiment: PI 3-Kinase (human) HTRF assay, PI3K δ; conditions: read-out: PI3K δ IC50
T4 construct: purchased Upstate / Millipore Corporation
T4 sequence (O00329 whole entry): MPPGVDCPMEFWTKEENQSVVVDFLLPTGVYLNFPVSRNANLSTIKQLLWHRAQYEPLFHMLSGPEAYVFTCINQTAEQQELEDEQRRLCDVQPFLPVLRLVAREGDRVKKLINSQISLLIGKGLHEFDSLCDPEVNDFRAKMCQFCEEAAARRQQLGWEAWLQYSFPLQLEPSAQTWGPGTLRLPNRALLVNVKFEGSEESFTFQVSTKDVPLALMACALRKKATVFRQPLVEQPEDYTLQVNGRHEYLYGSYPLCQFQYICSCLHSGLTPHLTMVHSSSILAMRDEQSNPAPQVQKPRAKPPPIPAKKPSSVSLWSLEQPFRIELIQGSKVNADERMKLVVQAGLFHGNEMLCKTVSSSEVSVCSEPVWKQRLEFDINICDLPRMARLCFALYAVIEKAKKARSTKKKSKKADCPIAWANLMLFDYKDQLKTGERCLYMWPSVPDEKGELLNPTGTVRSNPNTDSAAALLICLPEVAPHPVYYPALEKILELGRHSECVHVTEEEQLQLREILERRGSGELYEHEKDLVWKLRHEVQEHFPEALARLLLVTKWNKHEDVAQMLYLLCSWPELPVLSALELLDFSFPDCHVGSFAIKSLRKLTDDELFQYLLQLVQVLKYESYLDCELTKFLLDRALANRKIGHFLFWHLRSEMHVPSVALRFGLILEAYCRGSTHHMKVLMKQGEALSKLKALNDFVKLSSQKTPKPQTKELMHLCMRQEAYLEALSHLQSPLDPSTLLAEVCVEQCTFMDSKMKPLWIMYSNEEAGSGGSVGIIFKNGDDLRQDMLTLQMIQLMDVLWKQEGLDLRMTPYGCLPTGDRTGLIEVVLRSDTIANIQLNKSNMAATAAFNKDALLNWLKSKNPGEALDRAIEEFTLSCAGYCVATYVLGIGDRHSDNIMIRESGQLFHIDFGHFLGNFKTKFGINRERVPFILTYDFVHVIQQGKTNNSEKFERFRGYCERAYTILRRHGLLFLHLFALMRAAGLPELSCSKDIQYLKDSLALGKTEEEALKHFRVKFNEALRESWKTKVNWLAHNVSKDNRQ
T4 sequence (P27986 whole entry partner): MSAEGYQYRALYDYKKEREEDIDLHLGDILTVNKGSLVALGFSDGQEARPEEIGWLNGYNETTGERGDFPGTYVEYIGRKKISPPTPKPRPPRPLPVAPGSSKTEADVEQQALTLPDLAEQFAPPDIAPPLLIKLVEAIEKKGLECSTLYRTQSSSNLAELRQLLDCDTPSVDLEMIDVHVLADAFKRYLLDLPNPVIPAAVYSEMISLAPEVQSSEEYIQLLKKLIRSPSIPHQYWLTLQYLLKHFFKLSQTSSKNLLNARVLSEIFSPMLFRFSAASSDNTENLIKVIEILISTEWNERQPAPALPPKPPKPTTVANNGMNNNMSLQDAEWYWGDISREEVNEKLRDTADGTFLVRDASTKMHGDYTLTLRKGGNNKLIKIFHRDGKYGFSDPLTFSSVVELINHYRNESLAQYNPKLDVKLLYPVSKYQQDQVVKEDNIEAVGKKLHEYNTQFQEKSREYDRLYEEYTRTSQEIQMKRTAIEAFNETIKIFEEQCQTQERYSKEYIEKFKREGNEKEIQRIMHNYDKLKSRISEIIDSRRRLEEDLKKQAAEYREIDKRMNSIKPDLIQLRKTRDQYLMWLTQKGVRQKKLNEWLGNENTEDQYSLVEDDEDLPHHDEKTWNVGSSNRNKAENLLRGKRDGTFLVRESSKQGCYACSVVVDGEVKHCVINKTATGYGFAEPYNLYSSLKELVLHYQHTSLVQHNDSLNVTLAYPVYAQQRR

T2 sequence (P42336 whole entry): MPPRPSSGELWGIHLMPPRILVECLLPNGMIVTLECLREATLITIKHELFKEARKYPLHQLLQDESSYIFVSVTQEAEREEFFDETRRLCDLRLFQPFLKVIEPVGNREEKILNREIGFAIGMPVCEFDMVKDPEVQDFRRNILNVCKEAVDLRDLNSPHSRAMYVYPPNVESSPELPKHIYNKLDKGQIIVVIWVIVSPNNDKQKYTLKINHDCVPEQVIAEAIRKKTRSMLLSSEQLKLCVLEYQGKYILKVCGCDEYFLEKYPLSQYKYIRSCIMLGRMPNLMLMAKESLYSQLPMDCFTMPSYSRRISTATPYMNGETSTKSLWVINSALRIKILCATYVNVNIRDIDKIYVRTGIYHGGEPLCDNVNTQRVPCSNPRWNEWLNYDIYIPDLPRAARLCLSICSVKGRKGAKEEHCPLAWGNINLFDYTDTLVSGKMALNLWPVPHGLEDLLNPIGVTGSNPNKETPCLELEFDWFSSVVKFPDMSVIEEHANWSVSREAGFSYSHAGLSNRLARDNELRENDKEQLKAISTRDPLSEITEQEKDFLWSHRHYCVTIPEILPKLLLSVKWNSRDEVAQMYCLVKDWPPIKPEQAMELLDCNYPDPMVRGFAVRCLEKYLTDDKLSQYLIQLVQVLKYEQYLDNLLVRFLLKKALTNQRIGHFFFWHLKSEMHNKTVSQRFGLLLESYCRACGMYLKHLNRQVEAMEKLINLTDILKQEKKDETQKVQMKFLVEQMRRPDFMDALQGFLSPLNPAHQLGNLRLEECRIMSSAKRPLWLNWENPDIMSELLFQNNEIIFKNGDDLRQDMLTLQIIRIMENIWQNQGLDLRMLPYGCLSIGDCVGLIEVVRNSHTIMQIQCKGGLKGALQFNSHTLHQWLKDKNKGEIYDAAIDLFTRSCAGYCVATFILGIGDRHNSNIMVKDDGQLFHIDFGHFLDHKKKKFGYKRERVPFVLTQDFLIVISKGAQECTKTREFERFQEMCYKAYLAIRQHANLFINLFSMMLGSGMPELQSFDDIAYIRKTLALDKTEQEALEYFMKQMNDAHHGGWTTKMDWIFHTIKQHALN
T2 sequence (P27986 whole entry partner): as the sequence (P27986 whole entry partner) above
T3 sequence (P48736 whole entry): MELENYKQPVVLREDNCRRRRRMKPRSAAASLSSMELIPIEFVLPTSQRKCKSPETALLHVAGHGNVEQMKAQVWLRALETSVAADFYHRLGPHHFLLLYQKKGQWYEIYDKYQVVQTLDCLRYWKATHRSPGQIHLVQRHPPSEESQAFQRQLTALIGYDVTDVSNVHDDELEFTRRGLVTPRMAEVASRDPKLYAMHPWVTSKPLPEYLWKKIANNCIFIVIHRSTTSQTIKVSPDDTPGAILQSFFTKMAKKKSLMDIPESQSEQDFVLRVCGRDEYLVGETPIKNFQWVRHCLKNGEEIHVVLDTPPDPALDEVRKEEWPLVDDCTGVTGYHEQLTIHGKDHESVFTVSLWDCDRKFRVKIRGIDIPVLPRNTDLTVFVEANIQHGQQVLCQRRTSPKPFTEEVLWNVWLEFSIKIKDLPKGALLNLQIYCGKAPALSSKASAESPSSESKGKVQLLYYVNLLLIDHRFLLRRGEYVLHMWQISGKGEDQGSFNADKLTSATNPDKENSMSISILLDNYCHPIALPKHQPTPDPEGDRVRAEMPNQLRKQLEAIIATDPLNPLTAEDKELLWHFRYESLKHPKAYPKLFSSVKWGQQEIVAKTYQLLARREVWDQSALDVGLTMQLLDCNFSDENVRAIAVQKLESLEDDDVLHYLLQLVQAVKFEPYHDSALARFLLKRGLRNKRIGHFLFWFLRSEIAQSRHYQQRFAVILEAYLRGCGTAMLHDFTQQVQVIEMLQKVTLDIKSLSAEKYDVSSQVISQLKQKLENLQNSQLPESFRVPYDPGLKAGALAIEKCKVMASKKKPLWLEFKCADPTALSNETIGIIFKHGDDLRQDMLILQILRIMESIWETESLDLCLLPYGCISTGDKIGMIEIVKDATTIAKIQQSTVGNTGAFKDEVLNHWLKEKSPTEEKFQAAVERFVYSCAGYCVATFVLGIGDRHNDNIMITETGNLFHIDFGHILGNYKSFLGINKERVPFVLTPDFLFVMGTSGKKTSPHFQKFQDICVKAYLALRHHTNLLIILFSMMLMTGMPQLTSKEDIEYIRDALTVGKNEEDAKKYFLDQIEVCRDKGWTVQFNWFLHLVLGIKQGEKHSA
T1 sequence (P42338 whole entry): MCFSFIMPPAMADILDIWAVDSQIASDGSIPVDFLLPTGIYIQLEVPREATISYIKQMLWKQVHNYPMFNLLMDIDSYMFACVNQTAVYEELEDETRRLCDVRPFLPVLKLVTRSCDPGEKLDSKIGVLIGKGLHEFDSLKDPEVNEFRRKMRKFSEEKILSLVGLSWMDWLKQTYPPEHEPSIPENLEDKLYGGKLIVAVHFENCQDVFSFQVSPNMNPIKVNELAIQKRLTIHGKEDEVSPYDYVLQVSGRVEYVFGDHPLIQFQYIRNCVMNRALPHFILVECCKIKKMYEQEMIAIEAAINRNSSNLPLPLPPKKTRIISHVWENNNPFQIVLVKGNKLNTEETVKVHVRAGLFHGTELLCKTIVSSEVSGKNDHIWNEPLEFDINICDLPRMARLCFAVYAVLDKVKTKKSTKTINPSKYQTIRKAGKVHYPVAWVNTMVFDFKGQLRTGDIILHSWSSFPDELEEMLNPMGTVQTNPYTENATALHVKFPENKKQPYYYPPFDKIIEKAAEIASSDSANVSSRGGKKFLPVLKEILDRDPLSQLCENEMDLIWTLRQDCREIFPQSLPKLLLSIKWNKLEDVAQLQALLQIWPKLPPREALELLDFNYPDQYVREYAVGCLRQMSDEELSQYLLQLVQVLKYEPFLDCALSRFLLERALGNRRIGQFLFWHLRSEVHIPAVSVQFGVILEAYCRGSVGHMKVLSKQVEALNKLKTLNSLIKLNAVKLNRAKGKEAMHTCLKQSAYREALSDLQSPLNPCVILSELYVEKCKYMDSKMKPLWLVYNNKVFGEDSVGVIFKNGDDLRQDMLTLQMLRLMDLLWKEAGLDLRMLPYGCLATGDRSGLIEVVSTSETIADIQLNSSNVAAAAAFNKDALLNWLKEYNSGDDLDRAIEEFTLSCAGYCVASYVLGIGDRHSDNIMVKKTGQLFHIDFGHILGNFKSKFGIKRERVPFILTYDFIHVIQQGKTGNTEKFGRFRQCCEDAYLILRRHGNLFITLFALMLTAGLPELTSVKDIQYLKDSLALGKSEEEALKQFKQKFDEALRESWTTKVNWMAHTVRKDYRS
T1 sequence (P27986 whole entry partner): as the sequence (P27986 whole entry partner) above

| SMILES | IC50 [1] [µM] | IC50 [2] [µM] | IC50 [3] [µM] | IC50 [4] [µM] |
| --- | --- | --- | --- | --- |
| CN1CCN(S(=O)(=O)c2cnc3ccc(-c4ccc5oc(N)nc5c4)cn23)CC1 [Compound 110] | > 10 | > 10 | > 10 | > 10 |
| Nc1nc2cc(-c3ccc4ncc(C(=O)N5CCNCC5)n4c3)ccc2o1 [Compound 111] | < 10 | < 0.1 | > 10 | > 10 |
| CS(=O)(=O)N1CCN(C(=O)c2cnc3ccc(-c4ccc5oc(N)nc5c4)cn23)CC1 [Compound 112] | > 10 | < 0.1 | < 1 | < 10 |
| CC(=O)N1CCN(C(=O)c2cnc3ccc(-c4ccc5oc(N)nc5c4)cn23)CC1 [Compound 113] | > 10 | < 0.1 | < 1 | > 10 |
| Nc1nc2ccc(-c3ccc4ncc(N5CCOCC5)nc4c3)cc2s1 [Compound 114] | > 10 | < 0.1 | < 1 | > 10 |
| CN1CCN(c2cnc3ccc(-c4ccc5nc(N)sc5c4)cc3n2)CC1 [Compound 115] | < 0.1 | < 0.1 | < 10 | > 10 |
| Nc1nc2cc(-c3ccc4ncc(N5CCOCC5)nc4c3)ccc2s1 [Compound 116] | < 1 | < 0.1 | < 1 | > 10 |
| Nc1nc2ccc(-c3ccc4ncc(N5CCOCC5)nc4c3)cc2o1 [Compound 117] | < 1 | < 0.1 | < 1 | > 10 |
| CNC(=O)CN1CCN(c2cnc3ccc(-c4ccc5oc(N)nc5c4)cc3n2)CC1 [Compound 120] | < 1 | < 0.1 | > 10 | < 10 |
| Nc1nc2cc(-c3cn4c(C(=O)N5CCOCC5)cnc4cn3)ccc2o1 [Compound 122] | > 10 | > 10 | > 10 | > 10 |
| CN1CCN(C(=O)c2cnc3cnc(-c4ccc5oc(N)nc5c4)cn23)CC1 [Compound 123] | > 10 | < 10 | > 10 | > 10 |
| Nc1nc2ccc(-c3ccc4ncc(C(=O)N5CCOCC5)n4c3)cc2o1 [Compound 124] | < 1 | < 1 | < 1 | > 10 |
| Nc1nc2ccc(-c3ccc4ncc(C(=O)N5CCOCC5)n4c3)cc2s1 [Compound 125] | > 10 | < 1 | < 1 | < 10 |
| Nc1nc2cc(-c3ccc4ncc(C(=O)N5CCOCC5)n4c3)ccc2s1 [Compound 126] | < 10 | < 1 | < 1 | > 10 |
| CN1CCN(c2cnc3ccc(-c4ccc5sc(N)nc5c4)cc3n2)CC1 [Compound 127] | < 0.1 | < 1 | < 10 | > 10 |
| C[C@@H]1CN(c2cnc3ccc(-c4ccc5oc(N)nc5c4)cc3n2)C[C@H](C)O1 [Compound 132] | > 10 | < 1 | < 10 | > 10 |
| CN1CCCN(c2cnc3ccc(-c4ccc5oc(N)nc5c4)cc3n2)CC1 [Compound 136] | < 1 | < 1 | < 10 | > 10 |
| CN1CCCN(C(=O)c2cnc3ccc(-c4ccc5oc(N)nc5c4)cn23)CC1 [Compound 140] | < 10 | < 1 | > 10 | > 10 |
| CCN1CCN(C(=O)c2cnc3ccc(-c4ccc5oc(N)nc5c4)cn23)CC1 [Compound 141] | > 10 | < 1 | < 10 | > 10 |
| CC1CN(C(=O)c2cnc3ccc(-c4ccc5oc(N)nc5c4)cn23)CC(C)N1 (stereo not shown) [Compound 142] | > 10 | < 10 | > 10 | > 10 |
| CN1CCN(C(=O)c2cnc3ccc(-c4ccc5nc(N)sc5c4)cn23)CC1 [Compound 146] | < 10 | < 10 | > 10 | > 10 |
| CC(=O)NC1CCN(C(=O)c2cnc3ccc(-c4ccc5oc(N)nc5c4)cn23)CC1 [Compound 147] | < 10 | < 1 | < 10 | < 10 |
| Nc1nc2cc(-c3ccc4ncc(C(=O)N5CCN(CCO)CC5)n4c3)ccc2o1 [Compound 148] | > 10 | < 0.1 | < 10 | > 10 |
| Nc1nc2cc(-c3ccc4ncc(-c5ccnc(N6CCOCC6)c5)nc4c3)ccc2o1 [Compound 150] | > 10 | < 1 | > 10 | > 10 |
| CCN1CCN(c2cnc3ccc(-c4ccc5oc(N)nc5c4)cc3n2)CC1 [Compound 152] | < 0.1 | < 0.1 | < 1 | < 10 |
